Reference: patent publication US20220354929A1, “PEPTIDES AND USES THEREOF” (LATERAL IP PTY LTD, priority 2019, published 2022)
Where “and” joins values, the source holds several entries; their conditions need not be identical. Equal entries are not always repeated. Entries after “also recorded” stand apart in the source; their conditions may differ.

Key:
dorsal horn neurones = assay: whole-cell patch clamp recording in spinal cord slices from Chung models of neuropathic pain: membrane properties of dorsal horn neurones; format: cell-based, rat; details: peptide 5 μM
From the text: (§1) An in vitro spinal cord slice with intact dorsal root afferents combined with single-cell whole-cell patch clamp electrophysiological recording techniques was used to assess the electrophysiological properties of the peptides having the amino acid sequence of SEQ ID NO:2, 3, 4 and 5.
The spinal nerve ligation model (Chung model) was first reported by Kim and Chung (1992; Pain, 50(3):355-63) and involves a single tight ligation of the L5 spinal nerve. […] This model has been used as a “gold standard” model for assessing the efficacy of novel compounds targeting neuropathic pain.
Adult male Sprague-Dawley rats, 8-9 weeks old, weighing 220-250 g at the time of surgery, were purchased from Charles River UK Ltd. The animals were housed in groups of 4 in an air-conditioned room on a 12-hour light/dark cycle. Food and water were available ad libitum. They were allowed to acclimatise to the experimental environment for three days by leaving them on a raised metal mesh for at least 40 min. The baseline paw withdrawal threshold (PWT) was examined using a series of graduated von Frey hairs for 3 consecutive days before surgery and re-assessed on the 6th to 8th day after surgery and on the 12th to 14th day after surgery before drug dosing. Each rat was anaesthetized with 5% isoflurane mixed with oxygen (2L per min) followed by an intramuscular (i.m.) injection of ketamine 90 mg/kg plus xylazine 10 mg/kg. The back was shaved and sterilized with povidone-iodine. The animal was placed in a prone position and a para-medial incision was made on the skin covering the L4-6 level. The L5 spinal nerve was carefully isolated and tightly ligated with 6/0 silk suture. The wound was then closed in layers after a complete hemostasis. A single dose of antibiotics (Amoxipen, 15 mg/rat, i.p.) was routinely given for prevention of infection after surgery. The animals were placed in a temperature-controlled recovery chamber until fully awake before being returned to their home cages.
(§2) Chung model rats, aged 8 to 12 weeks, were housed in an air-conditioned room on a 12 hour light/dark cycle with food and water available ad libitum. The rats were terminally anaesthetized using isofluorane and decapitated. The vertebral column, rib cage and surrounding tissues were rapidly removed and pinned under ice-cold (<4° C.), high sucrose-containing artificial cerebrospinal fluid (aCSF) comprising: 127 mM sucrose, 1.9 mM KCl, 1.2 mM KH2PO4, 0.24 mM CaCl2, 3.9 mM MgCl2, 26 mM NaHCO3, 10 mM D-glucose and 0.5 mM ascorbic acid. A laminectomy was performed and the spinal cord and associated roots gently dissected and teased out of the spinal column and surrounding tissues. Dura and pia mater and ventral roots were subsequently removed with fine forceps and the spinal cord hemisected. Care was taken to ensure dorsal root inputs to the spinal cord were maintained. The hemisected spinal cord-dorsal root preparations were secured to a tissue slicer and spinal cord slices (400 to 450 μm thick) with dorsal roots attached were cut in chilled (<4° C.) high sucrose aCSF using a Leica VT1000s microtome.
(§3) Slices were transferred to a small beaker containing ice cold aCSF with 127 mM NaCl, 1.9 mM KCl, 1.2 mM KH2PO4, 1.3 mM MgCl2, 2.4 mM CaCl2, 26 mM NaHCO3 and 10 mM D-glucose, and rapidly warmed to 35° C. ±1° C. in a temperature-controlled water bath over a 20 minute period, then subsequently removed and maintained at room temperature (22° C. ±2° C.) prior to electrophysiological recording. Electrophysiological recording was performed in aCSF comprising 127 mM NaCl, 1.9 mM KCl, 1.2 mM KH2PO4, 1.3 mM MgCl2, 2.4 mM CaCl2, 26 mM NaHCO3 and 10 mM D-glucose.
Whole-cell recordings were performed at 34-35° C. from Lamina I or II neurones in the dorsal horn of the spinal cord slices using Axopatch 1D and/or Multiclamp 700B amplifies and using the “blind” version of the patch-clamp technique. […]

[1] = solubility in distilled water
[2] = system: dorsal root afferent-mediated synaptic inputs to dorsal horn neurones; assay: whole-cell recording in spinal cord slices from Chung models: dorsal root afferent-mediated synaptic inputs (evoked EPSPs/IPSPs); format: cell-based, rat; details: peptide 5 μM; dorsal root stimulation 0.1 Hz
Experimental: as §1, §2, §3
Whole-cell recordings were performed at 34-35° C. from Lamina I or II neurones in the dorsal horn of the spinal cord slices using Axopatch 1D and/or Multiclamp 700B amplifies and using the “blind” version of the patch-clamp technique.
Patch pipettes were pulled from thin-walled borosilicate glass with resistances of between 3 and 8 MS2 when filled with intracellular solution (140 mM potassium gluconate, 10 mM KCl, 1 mM EGTA-Na, 10 mM HEPES, 4 mM Na2ATP, 0.3 mM Na-GTP). The peptides of SEQ ID NOs:2, 3, 4 or 5 (LAT7771, LAT7772, LAT7773 or LAT7774) were diluted in the tissue bath at a concentration of 5 μM.
A concentric bipolar stimulating electrode was placed appropriately either on the dorsal root or dorsal root entry zone to evoke postsynaptic potentials/currents in recorded cells (see FIG. 1). […] EPSPs/EPSCs were confirmed as monosynaptic on the basis of being characterised by a constant latency and rise-time with few failures.
Recordings were monitored on an oscilloscope and stored on digital audio tapes for later off-line analysis. In addition, data were low-pass filtered at 2-5 kHz, (1 kHz for voltage-clamp data), digitized at 2-10 kHz and stored on a PC running pCLAMP 10 data acquisition software (Axon Instruments). Analysis of electrophysiological data was carried out using Clampfit 10 software.

In the case of CRIVYDSNCG [LAT7774], the “effect on inward rectification (in words)” value (dorsal horn neurones) is reported as “changes in inward rectification”, the “effect on membrane potential / postsynaptic membrane properties (in words)” value (dorsal horn neurones) is reported as “little effect on a further 2 dorsal horn neurones; also recorded: hyperpolarisation; also recorded: depolarisation” and the “Input Resistance, mean in presence of peptide” value (dorsal horn neurones; all cells) is reported as 294.0±62.2 MΩ and 294.0 MΩ. For the same sequence, the “Membrane Potential, mean in presence of peptide” value (dorsal horn neurones; all cells, ipsilateral to injury) was −59.8±3.6 mV and −59.8 mV, the “Normalised Input Resistance, mean in presence of peptide” value (dorsal horn neurones; control = 100) was 121.2 and the “Normalised Input Resistance, ΔIR” value (dorsal horn neurones; control = 100) was −21.2. For the same sequence, the “reversal potential of peptide-induced response (intersection of VI relations)” value (dorsal horn neurones; individual neurones) was “around −100 mV and ~−65 mV and around −80 mV and ~−85 mV and around −95 mV and around −55 mV and around −85 mV”, the “Normalised Membrane Potential, mean in presence of peptide” value (dorsal horn neurones; rest = 100) was 100.9 and the “Normalised Membrane Potential, ΔVm” value (dorsal horn neurones; rest = 100) was −0.9. For the same sequence, the “solubility in distilled water” value [1] was “soluble” and the “effect on dorsal root-evoked EPSPs / excitatory synaptic transmission (in words)” value [2] was “no effect on dorsal root evoked (0.1 Hz) EPSPs in 4 neurones; also recorded: minor reduction in two; also recorded: increased EPSPs in one; also recorded: both facilitating and inhibiting these inputs; also recorded: small decrease in EPSPs; also recorded: lack of effect; also recorded: increase in EPSPs”.
